Tests used:
Type in all cases: in vivo
Monilinia spp. (MONILA) [1] = experiment: Field trial 2: brown rot of flowers and branches, peaches, southern France; settings: for % Incidence, Branches: Trial 2, branches, 22 DAA, untreated 30.60; for % Incidence, Flowers: Trial 2, flowers, 8 DAA, untreated 55.30
Description: (§1) A fungicidal treatment containing Compound I for use against brown rot diseases on stone fruits was carried out in three field trials. The first two trials were carried out in Italy and France in order to investigate the effectiveness of Compound 1 against brown rot of flowers. These two trials were designed as randomized complete block with four replications (plots respectively of 35 and 50 m^2) and were carried out in typical areas for apricot and peaches cultivation, respectively, in northeastern Italy and southern France. Trials were conducted under EPPO PP1/38(2), PP1/135(3), PP1/152(3), PP1/181(3), PP1/239(1) and related guidelines. Trials were sprayed three times during the flowering period, using a backpack mist blower equipment calibrated to apply product respectively at 600 and 700 L/ha of water volume. […] MONILA disease was evaluated on flowers on a sample of ten pre-marked branches per tree, aged one year. The number of infected flowers was counted and consequently the percent incidence was then calculated. A second assessment was then made on 50 small branches randomly selected in the two 2 central trees for each plot, counting the number of diseased small branches and then the % incidence was calculated.

Monilinia spp. (MONILA) [2] = experiment: Field trial 1: brown rot of flowers and branches, apricot, northeastern Italy; settings: for % Incidence, Branches: Trial 1, branches, 24 DAA, untreated 23.50; for % Incidence, Flowers: Trial 1, flowers, 8 DAA, untreated 21.00
Description: as §1

[3] = test system: Monilinia fructicola (MONIFC); experiment: Field trial 3: brown rot of fruits, peach, Ravenna, northeastern Italy; settings: Trial 3, fruits, 200 g ai/Ha
Description: A third trial was conducted in Italy in order to investigate the effectiveness of Compound I against brown rot of fruits. This trial was designed as randomized complete block with four replications and plots of 49.5 m^2 and was carried out in a typical area for peach cultivation in the province of Ravenna in northeastern Italy. The trial was conducted under EPPO PP1/222(1), PP1/135(2), PP1/152(3), PP1/181(3), PP1/225(1), PP1/239(1) and related guidelines. Products were sprayed twice during fruit ripening respectively at BBCH 79-81 and 81-85 of plant grow stage using a self-propelled air-assisted multi plot sprayer designed for efficacy trials with four independent series of 8 nozzles (Albutz, ATR 80 Yellow) calibrated to apply a spray volume of 1,000 L/ha at a pressure of 450 KPa according to the orchard canopy.
The pathogen was certificated to be Monilinia fructicola (MONIFC) by means of an immunoassay followed by a PCR assay on material collected (mummies) from the trial. The brown rot damage at harvest was evaluated on l00 randomly picked fruits per plot. Visual healthy samples of 60 fruits per plot were placed in alveolus plates and kept for 5 days in cold storage. Afterwards the samples were maintained for 14 days at about 20° C. (shelf life period). Several assessments were made in order to check the development of disease during the shelf life simulation. […]

SMILES: COc1ccnc(C(=O)N[C@H]2COC(=O)[C@H](Cc3ccccc3)[C@@H](OC(=O)C(C)C)[C@H](C)OC2=O)c1OCOC(=O)C(C)C [Compound I]
- % Incidence, Branches (Monilinia spp. (MONILA) [1]; 75 g ai/Ha): 11.98%
- % Incidence, Branches (Monilinia spp. (MONILA) [1]; 100 g ai/Ha): 9.93%
- % Incidence, Branches (Monilinia spp. (MONILA) [1]; 150 g ai/Ha): 4.20%
- % Incidence, Flowers (Monilinia spp. (MONILA) [1]; 75 g ai/Ha): 24.00%
- % Incidence, Flowers (Monilinia spp. (MONILA) [1]; 100 g ai/Ha): 16.70%
- % Incidence, Flowers (Monilinia spp. (MONILA) [1]; 150 g ai/Ha): 15.40%
- % Incidence, Branches (Monilinia spp. (MONILA) [2]; 75 g ai/Ha): 22.50%
- % Incidence, Branches (Monilinia spp. (MONILA) [2]; 100 g ai/Ha): 24.50%
- % Incidence, Branches (Monilinia spp. (MONILA) [2]; 150 g ai/Ha): 11.00%
- % Incidence, Flowers (Monilinia spp. (MONILA) [2]; 75 g ai/Ha): 11.25%
- % Incidence, Flowers (Monilinia spp. (MONILA) [2]; 100 g ai/Ha): 4.75%
- % Incidence, Flowers (Monilinia spp. (MONILA) [2]; 150 g ai/Ha): 3.25%
- % Incidence, Fruits ([3]; 7 DAA, untreated 31.3): 15.0%
- % Incidence, Fruits ([3]; 26 DAA, untreated 32.5): 16.8%
